Several values for one entry are separate records, joined by “and”; a condition that tells them apart may be missing. Equal values may be shown once.
Tested on: advanced renal cell carcinoma (RCC)
Assay: METEOR (Study 1) randomized phase 3 trial, cabozantinib vs everolimus: PFS, OS, ORR
Assay type: in vivo, human
Details: for ORR (95% CI), IRC / ORR (95% CI), Investigator assessed / Progressive disease, IRC / Progressive disease, Investigator assessed / Stable disease, IRC / Stable disease, Investigator assessed / Confirmed ORR (95% CI), IRC / Confirmed ORR (95% CI), Investigator assessed / Confirmed responses (95% CI), IRC / Confirmed responses (95% CI), Investigator assessed: RECIST 1.1; for PFS event: all randomized
[1] = Patients With High Tumor Burden
[2] = Primary TWT analysis (first 375), cut-off May 2015, min follow-up 11 mo, 247 PFS events
[3] = Pts with Bone and Visceral Metastases
[4] = Supportive analysis, all events (all 658), cut-off May 2015, min follow-up 6 mo, 394 PFS events
[5] = Traditional analysis (all 658), cut-off November 2014, min follow-up 2 days, 247 PFS events
[6] = all 658 randomized, per IRC, cutoff May 22, 2015
[7] = earlier cutoff at 247 events in the ITT Pop (traditional design)
[8] = high tumor burden (≥median SoD)
[9] = patients with bone and visceral metastases
[10] = patients with visceral (lung or liver) metastases
[11] = pazopanib only prior VEGFR TKI subgroup
[12] = prior therapy subgroup Anti-PD-1/PD-L1
[13] = prior therapy subgroup Pazopanib Only
[14] = prior therapy subgroup Sunitinib Only
[15] = sunitinib only prior VEGFR TKI subgroup

COc1cc2nccc(Oc3ccc(NC(=O)C4(C(=O)Nc5ccc(F)cc5)CC4)cc3)c2cc1OC [cabozantinib]
Kaplan-Meier estimate of % of patients alive (6 Months landmark): 91% (87%, 93%) | Kaplan-Meier estimate of % of patients alive (12 Months landmark): 73% | Kaplan-Meier estimate of % of patients alive (12 Months landmark, listed as Cabozantinib): 73% (68%, 79%) | Kaplan-Meier estimate of % of patients alive (18 Months landmark): 58% | Kaplan-Meier estimate of % of patients alive (18 Months landmark, listed as Cabozantinib): 58% (53%, 64%) | Kaplan-Meier estimate of % of patients alive (24 Months landmark): 48% (39%, 55%) | OS HR, planned interim analysis, cabozantinib vs everolimus (49% information fraction, all 658 randomized, at time of primary PFS analysis): 0.67 | ORR (95% CI), IRC (Asia Pacific): 28 (15-45) % | ORR (95% CI), Investigator assessed (Asia Pacific): 36 (21-53) % | Progressive disease, IRC (Asia Pacific): 10% | Progressive disease, Investigator assessed (Asia Pacific): 0% | Stable disease, IRC (Asia Pacific): 62% | Stable disease, Investigator assessed (Asia Pacific): 64% | ORR (95% CI), IRC (Europe): 15 (10-21) % | ORR (95% CI), Investigator assessed (Europe): 22 (16-29) % | Progressive disease, IRC (Europe): 10% | Progressive disease, Investigator assessed (Europe): 8% | Stable disease, IRC (Europe): 69% | Stable disease, Investigator assessed (Europe): 65% | Median OS (ITT, all 658 randomized, cutoff Dec. 31, 2015): 21.4 months | Objective response rate (confirmed, partial responses only) per IRC (ITT, all 658 randomized, cutoff May 22, 2015): 17% | ORR (95% CI), IRC (North America): 16 (10-24) % | ORR (95% CI), Investigator assessed (North America): 20 (13-29) % | Progressive disease, IRC (North America): 17% | Progressive disease, Investigator assessed (North America): 13% | Stable disease, IRC (North America): 62% | Stable disease, Investigator assessed (North America): 62% | Confirmed ORR (95% CI), IRC [1]: 18 (12-24) % | Confirmed ORR (95% CI), Investigator assessed [1]: 21 (15-28) % | Progressive disease, IRC [1]: 8% | Progressive disease, Investigator assessed [1]: 7% | Stable disease, IRC [1]: 68% | Stable disease, Investigator assessed [1]: 67% | Confirmed ORR (95% CI), IRC (Patients With Low Tumor Burden): 17 (12-24) % | Confirmed ORR (95% CI), Investigator assessed (Patients With Low Tumor Burden): 27 (20-34) % | Progressive disease, IRC (Patients With Low Tumor Burden): 16% | Progressive disease, Investigator assessed (Patients With Low Tumor Burden): 10% | Stable disease, IRC (Patients With Low Tumor Burden): 62% | Stable disease, Investigator assessed (Patients With Low Tumor Burden): 59% | Median PFS [2]: 7.4 mo | PFS HR, cabozantinib vs everolimus [2]: 0.58 | Confirmed responses (95% CI), IRC (Pts with Bone Metastases): 17 (9-27) % | Confirmed responses (95% CI), Investigator assessed (Pts with Bone Metastases): 27 (18-39) % | Progressive disease, IRC (Pts with Bone Metastases): 13% | Progressive disease, Investigator assessed (Pts with Bone Metastases): 9% | Stable disease, IRC (Pts with Bone Metastases): 70% | Stable disease, Investigator assessed (Pts with Bone Metastases): 64% | Confirmed responses (95% CI), IRC [3]: 20 (11-32) % | Confirmed responses (95% CI), Investigator assessed [3]: 30 (19-43) % | Progressive disease, IRC [3]: 15% | Progressive disease, Investigator assessed [3]: 10% | Stable disease, IRC [3]: 65% | Stable disease, Investigator assessed [3]: 60% | Confirmed responses (95% CI), IRC (Pts without Bone Metastases): 17 (13-23) % | Confirmed responses (95% CI), Investigator assessed (Pts without Bone Metastases): 23 (18-28) % | Progressive disease, IRC (Pts without Bone Metastases): 12% | Progressive disease, Investigator assessed (Pts without Bone Metastases): 9% | Stable disease, IRC (Pts without Bone Metastases): 64% | Stable disease, Investigator assessed (Pts without Bone Metastases): 83% | Median PFS [4]: 7.4 mo | PFS HR, cabozantinib vs everolimus [4]: 0.51 | Median PFS [5]: 6 mo | PFS HR, cabozantinib vs everolimus [5]: 0.48 | Objective response rate per investigator (all 658 randomized, cutoff May 22, 2015): 24% | Median duration of PFS [6]: 7.4 months | PFS HR, cabozantinib vs everolimus [6]: 0.51 and 0.52 | Median duration of PFS (all 658 randomized, per IRC, cutoff May 22, 2015, listed as Cabozantinib): 7.4 (6.6-9.1) months and 7.4 months | PFS HR, cabozantinib vs everolimus (all 658 randomized, per investigator): 0.54 | Median duration of PFS (all 658 randomized, per investigator, cutoff May 22, 2015): 7.4 (7.3-7.8) months | PFS HR, cabozantinib vs everolimus (all 658 randomized, per investigator, listed as Cabozantinib): 0.54 (0.45-0.66) | PFS event (per IRC, cutoff May 22, 2015): 180 (55) ^ n (%) | PFS event (per investigator, cutoff May 22, 2015): 196 (59) ^ n (%) | Median PFS, alternative analysis [7]: 6 mo | PFS HR, alternative analysis [7]: 0.49 and 0.48 | Median PFS (first 375 randomized, per independent radiology review committee (IRC)): 7.4 months | Median OS (high MET tumor expression): 22.0 months | OS HR, cabozantinib vs everolimus (high MET tumor expression): 0.55 | Median OS (high tumor burden): 18.1 mo | OS HR, cabozantinib vs eve [8]: 0.60 | PFS HR, cabozantinib vs eve [8]: 0.41 | Patients with reduction in measurable tumor lesion size (in vivo): 75% | Median OS (low MET tumor expression): 20.8 months | OS HR, cabozantinib vs everolimus (low MET tumor expression): 0.72 | Median OS (low tumor burden): 22.0 mo | OS HR, cabozantinib vs eve (low tumor burden (<median SoD)): 0.76 | PFS HR, cabozantinib vs eve (low tumor burden (<median SoD)): 0.63 | Median OS (patients enrolled in Canada): 20.8 mo | Median PFS (patients enrolled in Canada): 7.4 mo | ORR (patients enrolled in Canada): 17% | OS HR, cabo vs eve (patients enrolled in Canada): 0.33 | PFS HR, cabo vs eve (patients enrolled in Canada): 0.40 | PFS HR, cabozantinib vs everolimus (patients with bone + visceral metastases): 0.26 | Median PFS [9]: 5.6 mo | ORR [9]: 20% | OS HR, cabozantinib vs everolimus [9]: 0.45 | Median PFS (patients with bone metastases): 7.4 mo | ORR (patients with bone metastases): 17% | OS HR, cabozantinib vs everolimus (patients with bone metastases): 0.54 | PFS HR, cabozantinib vs everolimus (patients with bone metastases at baseline): 0.33 | OS HR, cabozantinib vs eve [10]: 0.66 | PFS HR, cabozantinib vs eve [10]: 0.48 | OS HR, cabozantinib vs everolimus (pazopanib as only prior VEGFR TKI): 0.66 | Median OS [11]: 22.0 months | Median PFS [11]: 7.4 months | Best overall response: confirmed complete response (per IRC): 0 n | Best overall response: confirmed partial response (per IRC): 57 n | Best overall response: confirmed complete response (per investigator): 0 n | Confirmed ORR (95% CI), tumor response by IRC [12]: 22 (6-48) % | Confirmed ORR (95% CI), tumor response by investigator [12]: 22 (6-48) % | Progressive disease, tumor response by IRC [12]: 11% | Progressive disease, tumor response by investigator [12]: 11% | Stable disease, tumor response by IRC [12]: 50% | Stable disease, tumor response by investigator [12]: 56% | Confirmed ORR (95% CI), tumor response by IRC [13]: 19 (12-29) % | Confirmed ORR (95% CI), tumor response by investigator [13]: 31 (21-41) % | Progressive disease, tumor response by IRC [13]: 14% | Progressive disease, tumor response by investigator [13]: 3% | Stable disease, tumor response by IRC [13]: 65% | Stable disease, tumor response by investigator [13]: 64% | Confirmed ORR (95% CI), tumor response by IRC [14]: 16 (11-24) % | Confirmed ORR (95% CI), tumor response by investigator [14]: 23 (16-31) % | Progressive disease, tumor response by IRC [14]: 12% | Progressive disease, tumor response by investigator [14]: 11% | Stable disease, tumor response by IRC [14]: 66% | Stable disease, tumor response by investigator [14]: 60% | ORR (region Asia Pacific (AP)): 28% | OS HR, cabozantinib vs eve (region Asia Pacific (AP)): 0.49 | PFS HR, cabozantinib vs eve (region Asia Pacific (AP)): 0.43 | ORR (region Europe (EU)): 15% | OS HR, cabozantinib vs eve (region Europe (EU)): 0.67 | PFS HR, cabozantinib vs eve (region Europe (EU)): 0.54 | ORR (region North America (NA)): 16% | OS HR, cabozantinib vs eve (region North America (NA)): 0.79 | PFS HR, cabozantinib vs eve (region North America (NA)): 0.50 | Deaths (second interim analysis of OS, of randomized patients): 42% | OS HR, cabozantinib vs everolimus (sunitinib as only prior VEGFR TKI): 0.66 | Median OS [15]: 21.4 months | Median PFS [15]: 9.1 months

Source: patent US11141413B2, “Method of treating renal cell carcinoma using N-(4-(6,7-dimethoxyquinolin-4-yloxy)phenyl)-N′-(4-fluorophenyl)cyclopropane-1,1-dicarboxamide, (2S)-hydroxybutanedioate” (Exelixis, Inc., priority 2016, dated 2021)
